Experimental data: ChEMBL document CHEMBL4823300, “Design, synthesis and anticancer activity of sulfenylated imidazo-fused heterocycles” (Bioorg Med Chem Lett, 2021)
Activity calls are given as the source filed them. No cut-off for these calls is given here.

What was measured:
HepG2 [1] = assay: Induction of apoptosis in human HepG2 cells assessed as necrotic cells at 5 uM incubated for 48 hrs by annexin V-FITC/propidium iodide (AV/PI) dual staining assay (reference value: 1.06%); type: functional
HepG2 [2] = assay: Induction of apoptosis in human HepG2 cells assessed as late apoptotic cells at 5 uM incubated for 48 hrs by annexin V-FITC/propidium iodide (AV/PI) dual staining assay (reference value: 4.07%); type: functional
HepG2 [3] = assay: Induction of apoptosis in human HepG2 cells assessed as live cells at 5 uM incubated for 48 hrs by annexin V-FITC/propidium iodide (AV/PI) dual staining assay (reference value: 91.01%); type: functional
HepG2 [4] = assay: Induction of apoptosis in human HepG2 cells assessed as early apoptotic cells at 10 uM incubated for 48 hrs by annexin V-FITC/propidium iodide (AV/PI) dual staining assay (reference value: 3.87%); type: functional
DU-145 = assay: Anticancer activity against human DU-145 cells assessed as growth inhibition incubated for 48 hrs by MTT assay; type: functional, cell-based; details: DU-145, 48 h
HepG2 [5] = assay: Cell cycle arrest in human HepG2 cells assessed as accumulation at G2/M phase at 10 uM (reference value: 3.72%); type: functional
U-87 MG = assay: Anticancer activity against human U-87 MG cells assessed as growth inhibition incubated for 48 hrs by MTT assay; type: functional, cell-based, U-87MG ATCC
HepG2 [6] = assay: Cell cycle arrest in human HepG2 cells assessed as accumulation at SubG1 phase at 5 uM (reference value: 7.13%); type: functional
SK-MEL-28 = assay: Anticancer activity against human SK-MEL-28 cells assessed as growth inhibition incubated for 48 hrs by MTT assay; type: functional, cell-based; details: SK-MEL-28, 48 h
HepG2 [7] = assay: Induction of apoptosis in human HepG2 cells assessed as nuclear condensation at 5 to 10 uM incubated for 48 hrs by Hoechst staining based assay relative to control; type: functional, cell-based; details: dose 5-10 µM
HepG2 [8] = assay: Induction of apoptosis in human HepG2 cells assessed as late apoptotic cells at 10 uM incubated for 48 hrs by annexin V-FITC/propidium iodide (AV/PI) dual staining assay (reference value: 4.07%); type: functional
HepG2 [9] = assay: Induction of apoptosis in human HepG2 cells assessed as early apoptotic cells at 5 uM incubated for 48 hrs by annexin V-FITC/propidium iodide (AV/PI) dual staining assay (reference value: 3.87%); type: functional
HepG2 [10] = assay: Anticancer activity against human HepG2 cells assessed as growth inhibition incubated for 48 hrs by MTT assay; type: functional, cell-based; details: HepG2, 48 h
HepG2 [11] = assay: Induction of apoptosis in human HepG2 cells assessed as necrotic cells at 10 uM incubated for 48 hrs by annexin V-FITC/propidium iodide (AV/PI) dual staining assay (reference value: 1.06%); type: functional
NIH3T3 = assay: Anticancer activity against mouse NIH3T3 cells assessed as growth inhibition incubated for 48 hrs by MTT assay; type: cell-based; details: NIH3T3, 48 h
HepG2 [12] = assay: Cell cycle arrest in human HepG2 cells assessed as accumulation at G0/G1 phase at 10 uM (reference value: 92.33%); type: functional
HepG2 [13] = assay: Cell cycle arrest in human HepG2 cells assessed as accumulation at S phase at 10 uM (reference value: 4.66%); type: functional
HepG2 [14] = assay: Cell cycle arrest in human HepG2 cells assessed as accumulation at G2/M phase at 5 uM (reference value: 3.72%); type: functional
HepG2 [15] = assay: Cell cycle arrest in human HepG2 cells assessed as accumulation at SubG1 phase at 10 uM (reference value: 7.13%); type: functional
A549 = assay: Anticancer activity against human A549 cells assessed as growth inhibition incubated for 48 hrs by MTT assay; type: functional, cell-based; details: A549, 48 h
HEK293 = assay: Anticancer activity against human HEK293 cells assessed as growth inhibition incubated for 48 hrs by MTT assay; type: cell-based; details: HEK293, 48 h
HeLa = assay: Anticancer activity against human HeLa cells assessed as growth inhibition incubated for 48 hrs by MTT assay; type: functional, cell-based
HepG2 [16] = assay: Induction of apoptosis in human HepG2 cells assessed as live cells at 10 uM incubated for 48 hrs by annexin V-FITC/propidium iodide (AV/PI) dual staining assay (reference value: 91.01%); type: functional
MDA-MB-231 = assay: Anticancer activity against human MDA-MB-231 cells assessed as growth inhibition incubated for 48 hrs by MTT assay; type: functional, cell-based; details: MDA-MB-231, 48 h
HepG2 [17] = assay: Induction of apoptosis in human HepG2 cells assessed as decrease in mitochondrial membrane potential at 5 to 10 uM incubated for 48 hrs by JC-1 staining based assay relative to control; type: functional, cell-based; details: dose 5-10 µM
HepG2 [18] = assay: Cell cycle arrest in human HepG2 cells assessed as accumulation at S phase at 5 uM (reference value: 4.66%); type: functional
HepG2 [19] = assay: Cell cycle arrest in human HepG2 cells assessed as accumulation at G0/G1 phase at 5 uM (reference value: 92.33%); type: functional

- IC50 (DU-145): 22 µM
- IC50 (U-87 MG): 59.2 µM
- IC50 (SK-MEL-28): 65.4 µM
- IC50 (HepG2 [10]): 8.8 µM
- IC50 (A549): 16.3 µM
- IC50 (HeLa): 35.5 µM
- IC50 (MDA-MB-231): 25.3 µM
SMILES: C(=C\c1nc2ccccn2c1Sc1ccccc1)/c1ccccc1
- Activity (HepG2 [1]): 0.34%
- Activity (HepG2 [2]): 11.31%
- Activity (HepG2 [3]): 72.25%
- Activity (HepG2 [4]): 25.51%
- Activity (HepG2 [5]): 30.69%
- Activity (HepG2 [6]): 7.64%
- Activity (HepG2 [7]): Active
- Activity (HepG2 [8]): 22.5%
- Activity (HepG2 [9]): 16.1%
- Activity (HepG2 [11]): 0.2%
- IC50 (NIH3T3): > 100 µM
- Activity (HepG2 [12]): 65.4%
- Activity (HepG2 [13]): 0.69%
- Activity (HepG2 [14]): 9.73%
- Activity (HepG2 [15]): 8.65%
- IC50 (HEK293): > 100 µM
- Activity (HepG2 [16]): 51.78%
- Activity (HepG2 [17]): Active
- Activity (HepG2 [18]): 0.52%
- Activity (HepG2 [19]): 86.58%
